Measurements: patent US9216974B2, “Phenoxazine derivatives and methods of use thereof” (Washington University, priority 2010, dated 2015)
Entries after “also recorded” stand apart in the source; their conditions may differ. Read-outs that look alike come from different tables or passages of the source. One block for each compound: values may come before it.

What was measured:
[1] = test system: cerebrovascular Aβ deposits; test: In vivo live imaging of CAA amyloid deposits through closed cranial window; conditions: topical application through cranial window, resorufin 2 μM, 16-month-old Tg2576 mice
Protocol: FIG. 4 depicts in vivo live imaging of CAA amyloid deposits through closed cranial window. A,B. Closed cranial window was prepared on the right parietal bone of 16-month-old Tg2576 mice. Leptomeningeal arterioles (B) were subjected to live imaging using a fluorescent microscope. […] Scale bars: in C-E: 250 μm, in E: 100 μm.

[2] = literature value; cited from earlier work
[3] = normal rats; cited from earlier work
CAA = CAA (Homo sapiens, UniProt P05067); test: Binding affinities for CAA performed on isolated vessels determined by fluorescent binding; conditions: for Ki: read-out: Binding affinity Ki; for Kd: read-out: Binding affinity KD
Protocol: The isolation of cerebral vessels for biochemical analysis will be performed as described (78, 98). […] After the cerebellum is removed, the brain will be homogenized in fivefold excess of vessel buffer. An equal volume of 26% dextran will be added, and the tissue will be centrifuged at 6200×g for 30 min at 4° C. The resulting vessels form a pellet, whereas the parenchymal “vessel-free” material forms a solid, compact disc at the top of the solution. The […] will be resuspended in vessel buffer and passed over a 40-μm nylon mesh to capture vessels. Vessel and parenchymal material will be lysed in 5 M guanidine, 50 mM Tris, pH 8, with protease inhibitor cocktail (Roche) for 3 hr.

[4] = target: CAA (cerebrovascular Aβ deposits) (Homo sapiens, UniProt P05067); test: In situ binding assay in fixed brain tissue, CAA; design: species or system Tg2576 mice
Text: (§1) Tg2576 mice are a well characterized mouse model of AD and CAA. They develop congophilic Aβ aggregates within neuritic plaques and leptomeningeal and cortical penetrating arteries at 11 months of age (Hsiao et al., 1996; Kawarabayashi et al., 2001; Fryer et al., 2005; Han et al., 2008).
(§2) The Ki values for CAA vs. neuritic plaques will be calculated utilizing the fluorescent amyloid-ligand methoxy-X34 and fluorescent microscopic method. […] Tissue sections (3 sections per reaction) will be then mounted and coverslipped. Photographs of methoxy-X34 binding images will be taken using a Nikon fluorescent microscope. The fluorescent intensity on cerebral amyloid deposits and neuritic plaques will be separately quantified using Image J software. Finally, Ki values will be calculated by plotting % bound vs. log concentrations of competitors followed by non-linear regression using the Graph Pad Prism software. The maximum binding will be obtained from the methoxy-X34 intensity in the absence of competitors, while non-specific binding will be detected by the fluorescent intensity in brain tissues incubated without methoxy-X34.
In situ binding assay: Tg2576 mice or littermate controls at 15 months of age will be perfused with phosphatebuffered saline (PBS) for 5 min. Brains will be removed, fixed in 4% paraformaldehyde, and preserved in 30% glucose-PBS solution at 4° C. Brains will be coronally sectioned using a microtome and kept in cryoprotectant solution at −20° C. To label amyloid deposits, brain sections (3 sections per reaction) will be permeabilized with PBS containing 0.25% Triton X-100 for 20 min at room temperature, followed by incubation with 1 μM methoxy-X34 in the presence or absence of competitors at various concentrations (10-9-10-6 M). Sections will be subjected to fluorescent microscopy using a Nikon Eclipse C600 microscope. The fluorescent intensity of methoxy-X34 in vessels and neuritic plaques will be quantified using the ImageJ software. The binding affinity (Ki) will be calculated using the Graph Pad Prism software.

[5] = type: physicochemical
Protocol: Hydrophobicity affects drug absorption, bioavailability, hydrophobic drug-receptor interactions, metabolism of molecules, and their toxicity. […] The mixture will be incubated with agitation for 30 min until ionic and non-ionic forms of test compound reach equilibrium. Two layers will be separated by centrifugation. Test compound's concentrations in octanol and water layers will be determined by UV/VIS spectrophotometry. The log Poct value will be calculated from log (concentration in n-octanol fraction/concentration in water fraction). Experiments will be repeated at least 3 times with triplicated samples.

[6] = normal mice, cited from earlier work
CAA vs. neuritic plaques [7] = test: Co-staining of fixed brain sections of Tg2576 mice with fluorescent amyloid dyes; type: binding; conditions: aged (16-month-old) Tg2576 mice
Text: as §1

neuritic plaques = test: In situ binding assay in fixed brain tissue, neuritic plaques; design: species or system Tg2576 mice; conditions: in situ binding assay at a concentration of 160 μM
Text: as §1, §2
In situ binding assay: Tg2576 mice or littermate controls at 15 months of age will be perfused with phosphatebuffered saline (PBS) for 5 min. […] The fluorescent intensity of methoxy-X34 in vessels and neuritic plaques will be quantified using the ImageJ software. […]

CAA vs. neuritic plaques [8] = test: Staining of paraffin-embedded cortical brain sections of a human AD patient (3D6 and resorufin); type: binding; conditions: 3D6 co-labeling
Text: as §1

[9] = test system: Aβ deposits in cerebral vessels; test: Multi-photon microscopy of whole brains stained with resorufin and phalloidin; conditions: 16-month-old Tg2576 mice

Compound: COc1cc(/C=C/c2ccc(O)cc2)ccc1/C=C/c1ccc(O)cc1 [methoxy-X04, reference compound]
fluorescent labeling of amyloid deposits in live mice [1]: staining was noted in both arterioles and senile plaques; also recorded: present in both cerebral arteries and parenchymal neuritic plaques
log Poct [2]: 2.6
brain clearance estimated half life (t½) [3]: ~45 min

Compound: COCCOCCOc1ccc2nc3ccc(=O)cc-3oc2c1 [WC-5-43]
Ki (CAA): 407 nM

Compound: O=c1ccc2nc3ccc(OCc4cn(CCF)nn4)cc3oc-2c1 [WC-5-3]
Kd (CAA): 2380 nM

Compound: COCCOc1ccc2nc3ccc(=O)cc-3oc2c1 [WC-5-42]
Ki (CAA): 347 nM

Compound: phenyl-resorufin
selective binding affinity for CAA deposits [4]: low nanomolar range
lipophilicity [5]: moderate lipophilicity

Compound: COc1ccc(OCCOCCOc2ccc3nc4ccc(=O)cc-4oc3c2)cc1 [WC-5-47]
Ki (CAA): > 10000 nM

Compound: methoxyphenyl-resorufin
selective binding affinity for CAA deposits [4]: low nanomolar range
lipophilicity [5]: moderate lipophilicity

Compound: [11CH3]Nc1ccc(-c2nc3ccc(O)cc3s2)cc1 [[^11C]PIB]
brain level ([6]; 2 min after injection): 3.2 % ID/g
brain level ([6]; 60 min): 0.21 % ID/g
fraction in the brain cleared ([6]; within 60 min): 93%

Compound: CC(=O)OCCOc1ccc2nc3ccc(=O)cc-3oc2c1 [WC-5-8]
Ki (CAA): 860 nM

Compound: COc1ccc2nc3ccc(=O)cc-3oc2c1 [Methoxy-resorufin]
Ki (CAA): 4680 nM

selective binding affinity for CAA deposits [4]: low nanomolar range
Ki ([4]; preliminary studies, read-out: binding affinity (Ki) for cerebrovascular Aβ deposits): 247 nM
lipophilicity [5]: moderate lipophilicity
Compound: CCOc1ccc2nc3ccc(=O)cc-3oc2c1 [Ethoxy-resorufin, 7-ethoxyresorufin]

Compound: COc1cc(C=Cc2ccc(O)c(C(=O)O)c2)ccc1C=Cc1ccc(O)c(C(=O)O)c1 [methoxy-X34, reference compound]
staining of CAA vs. neuritic plaques (CAA vs. neuritic plaques [7]): labeled amyloid deposited in both CAA and neuritic plaques; also recorded: visualized both CAA and neuritic plaques
affinity for CAA vs. neuritic plaques ([4]; in situ binding assay): almost an equal affinity for both CAA and neuritic plaques

Compound: COc1ccc(COc2ccc3nc4ccc(=O)cc-4oc3c2)cc1 [WC-5-5]
Ki (CAA): 218 nM

Compound: O=c1ccc2nc3ccc(OCCF)cc3oc-2c1 [WC-5-2]
Kd (CAA): 800 nM

Compound: O=c1ccc2nc3ccc(OCc4ccc(I)cc4)cc3oc-2c1 [WC-5-31]
Kd (CAA): > 10000 nM

Compound: COc1ccc(OCCOc2ccc3nc4ccc(=O)cc-4oc3c2)cc1 [WC-5-45]
Ki (CAA): 421 nM

Compound: O=c1ccc2nc3ccc(OCCBr)cc3oc-2c1 [WC-5-9]
Kd (CAA): 927 nM

Compound: C#COc1ccc2nc3ccc(=O)cc-3oc2c1 [WC-5-1]
Kd (CAA): 828 nM
Ki (CAA): 4610 nM

Compound: COc1cccc(COc2ccc3nc4ccc(=O)cc-4oc3c2)c1 [WC-5-4]
Kd (CAA): 537 nM

binding to neuritic plaques (neuritic plaques): negligible
log Poct ([5]; 30 min): 0.427
Compound: O=c1ccc2nc3ccc(O)cc3oc-2c1 [Resorufin, resorufin]
staining of CAA vs. neuritic plaques (CAA vs. neuritic plaques [7]): CAA>>>neuritic plaques
staining of CAA vs. neuritic plaques (CAA vs. neuritic plaques [7]; listed as resorufin): selectively bound fibrillar amyloid-laden arterioles
staining of arterioles vs. neuritic plaques in human AD brain (CAA vs. neuritic plaques [8]): selectively labeled 3D6-immunoreactive amyloid deposits in arterioles but less likely neuritic plaques; also recorded: prominent in 3D6-positive cerebral arterioles but was rarely seen in 3D6-positive neuritic plaques
fluorescent labeling of amyloid deposits in live mice [1]: selectively labeled amyloid deposits in arterioles
fluorescent labeling of amyloid deposits in live mice ([1]; listed as resorufin): marked fluorescent labeling within the walls of leptomeningeal arteries (but not in neuritic plaques); also recorded: visualized cerebrovascular Aβ deposits
intensity of resorufin staining by vessel type [9]: greater in pial arterioles than in penetrating arterioles or capillaries
